What is called Kd is the free concentration of one partner at which half of the binding sites on the other are occupied at equilibrium, for simple one-to-one binding. A lower Kd goes with higher affinity.

For experiment [1], the target named is T1, AMPK-s6 (γ subunit- K309A) (Rattus norvegicus, UniProt P54645+P80385, K309A).
T1 construct: His (N); made in house
The experiment can be described thus: SPR analysis, AMPK mutant s6. In kind it is binding. The procedure: Mammalian AMPK subunits (His-α1, β1, and γ1) were cloned into a pET-3d vector, and protein expression and purification were similar to the literature.
SPR analysis was performed with a Biacore T200 instrument (GE Healthcare). Firstly, the purred His-tagged AMPK containing α1β1γ1 protein was captured onto an activated carboxymethylated 5 (CM5) chip using amine coupling to levels ranging from 4000 RU to 6000 RU. Secondly, GENI was dissolved in PBS-P buffer solution (0.05% (v/v) Tween 20 and PBS), and the concentration of GENI was 64 μM. Thirdly, the solution of GENI was diluted to 32 μM, 16 μM, 8 μM, 4 μM, 2 μM, 1 μM and 0.5 μM with PBS-P buffer solution. The sample was filtered by pumping through a […] membrane. A gradient concentration of GENI was injected at a flow rate of 30 μL/min in a running buffer (0.05% (v/v) Tween 20 and PBS). The data were analyzed with Biacore evaluation software (T200 version 2.0) and fitted to the 1:1 Langmuir binding model, and the kinetic parameters were derived.
The non-covalent interaction between drugs and proteins is an important way to exert drug efficacy, and its mode of action and binding affinity usually determine the utilization and biological activity of drugs. AMPK is a heterotrimer complex consisting of an α subunit containing the kinase domain and two regulatory subunits (β- and γ-). Different action sites have varied or even opposite pharmacological effects. The molecular mechanism of interaction between the protein and molecule should be investigated thoroughly. After co-incubation of GENI and AMPK, LC-MS/MS measurements were performed to predict the binding sites. As shown in Extended Data Figure S2, ASP148, ASP157 and ASP166 of the AMPK α subunits and LYS148, ASP156, LYS309, and ASP316 of the AMPK γ subunit were possible to the binding sites of GENI. […] Thus, all of these seven sites affected the binding of GENI and AMPK to varying degrees, and they were located in the C lobe kinase domain of the AMPK α subunit, and the CBS2 and CBS4 domain of the AMPK γ subunit, respectively.
(In general: SPR reads the build-up and loss of mass on a sensor chip optically.)

The subject of experiment [2] is PC12 cells. The experiment can be described thus: Western blot of LC3 II/LC3 I in the autophagy flow assay. It counts as cell-based. Conditions: GENI group compared with the control group. How it is done:
Western blot analysis for p-AMPK α, AMPK α, p-mTOR, mTOR, p-ULK1, ULK1, and LC3-I/II was conducted according to the information described in the materials and methods section of Supplementary Information.
1.3. Western blot analysis.
For PC12 cell samples, we seeded 2 × 10^6 PC12 cells in each 60 mm dish containing 5 mL of DMEM and incubated the dish for 24 h. For the dose-dependent experiment of GENI, GENI (1, 3 and 10 μM) was added to the dishes and incubated for a period of time (2 hours for p-AMPK α, AMPK α, 48 hours for p-mTOR, mTOR and p-ULK1, ULK1; 8 hours for LC3-I/II). Cells were then collected, lysed using RAPI lysis buffer and centrifuged. The supernatants of each group were used as protein samples. For the protein samples of autophagy flow assay, we seeded 2 × 10^6 PC12 cells in each 60 mm dish containing 5 mL of DMEM and incubated the dish for 24 h.
The GENI, rapamycin and inhibitors, such as chloroquine and 3-MA were added according to the method of autophagy flow assay. After treatment of 18 h, cells were then collected, lysed using RAPI lysis buffer and centrifuged. […] The protein concentration was measured with a BCA assay kit (Beijing Cowin Biotech Company, Beijing, China). […] Bands were quantitatively measured using ImageJ software (National Institutes of Health, Bethesda, MD, USA).

The target of experiment [3] is T2, AMPK-s2 (α subunit- D157A) (Rattus norvegicus, UniProt P54645+P80385, D168A).
T2 construct: His (N); made in house
As to the kind of experiment: SPR analysis, AMPK mutant s2. In kind it is binding.

For experiment [4], the system named is T3, p53.
T3 construct: endogenous in cells
As to the kind of experiment: Drug affinity responsive target stability (DARTS), p53. It counts as binding. The conditions noted are these: 0.1–100 μM GENI, protein: pronase 100:1. How it is done: Cells were lysed by RIPA lysis buffer, and the protein concentration was measured. The lysate was divided into six groups. Before incubation with protease (protein: pronase = 50:1 w/w for PI3K and AMPK detection, 5:1 for MAPK detection, 100:1 for p53 detection) for 25 min in 25 °C, 0.1–100 μM GENI was added to lysates and incubated for 2 h at room temperature. The samples were mixed with loading buffer and then separated on 8% SDS-PAGE for immunoblotting analysis.

Experiment [5] has as its system PC12 cells. As to the kind of experiment: Neuroprotection assay (MTT) on H2O2-damaged PC12 cells. It counts as cell-based. Conditions: GENI 1, 3, or 10 μM 24 h, then 0.8 mM H2O2 1 h. The procedure: We seeded 5 × 10^4 PC12 cells in each well of a 24-well plate and incubated the cells for 24 h at 37 °C in 5% CO2. The medium was changed to 1 mL of serum-free Dulbecco’s modified Eagle’s medium (DMEM; Thermo Scientific, Shanghai, China) containing the different test samples. To determine the optimal concentration of hydrogen peroxide (H2O2), we treated cells with 0.5% dimethyl sulfoxide (DMSO) for 24 h and then incubated the cells with different concentrations of H2O2 for 1 h. In this work, 0.8 mM H2O2 was selected as the best dose for the following experiment. To study the neuroprotective effects of GENI, we treated PC12 cells with resveratrol (RES 10 μM) or GENI (1, 3, or 10 μM) for 24 h and 0.8 mM H2O2 for 1 h. The medium was changed to 500 μL of serum-free DMEM containing 200 μg/mL 3-(4,5-dimethyltaizol-2-yl)-2,5-diphenyltetrazolium bromide (MTT) and incubated for an additional 2 h. The medium was completely removed, and 200 μL of DMSO was added to each well to dissolve the formed formazan crystals. The resulting formazan was detected at 570 nm using a microplate reader (Bio-Tec Instruments Inc., Winooski, VT, USA).

[6] abbreviates: SPR, association rate, read-out: Ka.

T1 sequence (P54645 13-559 limits assumed): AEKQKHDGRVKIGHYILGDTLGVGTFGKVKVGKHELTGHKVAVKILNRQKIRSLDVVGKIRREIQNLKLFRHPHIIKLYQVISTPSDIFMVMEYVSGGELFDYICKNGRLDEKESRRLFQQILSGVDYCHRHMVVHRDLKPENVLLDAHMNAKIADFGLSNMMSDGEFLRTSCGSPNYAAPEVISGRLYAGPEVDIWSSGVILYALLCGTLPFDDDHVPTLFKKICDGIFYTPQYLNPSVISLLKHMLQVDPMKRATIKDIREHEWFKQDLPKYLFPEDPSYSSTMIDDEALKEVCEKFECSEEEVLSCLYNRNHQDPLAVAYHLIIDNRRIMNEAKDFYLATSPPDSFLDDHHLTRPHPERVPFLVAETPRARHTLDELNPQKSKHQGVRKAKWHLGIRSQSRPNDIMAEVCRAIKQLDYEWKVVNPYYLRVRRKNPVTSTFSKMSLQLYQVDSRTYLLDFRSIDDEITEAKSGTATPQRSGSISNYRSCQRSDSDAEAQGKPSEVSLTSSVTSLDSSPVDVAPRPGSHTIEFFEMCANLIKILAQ
T1 sequence (P80386 whole entry partner): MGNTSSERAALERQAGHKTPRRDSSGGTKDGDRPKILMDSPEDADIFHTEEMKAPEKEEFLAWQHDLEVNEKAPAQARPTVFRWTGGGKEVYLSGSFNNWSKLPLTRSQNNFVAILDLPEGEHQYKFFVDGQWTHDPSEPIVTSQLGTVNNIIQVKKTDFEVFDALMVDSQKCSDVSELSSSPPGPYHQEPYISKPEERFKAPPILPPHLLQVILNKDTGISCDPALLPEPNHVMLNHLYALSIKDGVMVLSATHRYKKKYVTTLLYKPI
T1 sequence (P80385 whole entry K309A): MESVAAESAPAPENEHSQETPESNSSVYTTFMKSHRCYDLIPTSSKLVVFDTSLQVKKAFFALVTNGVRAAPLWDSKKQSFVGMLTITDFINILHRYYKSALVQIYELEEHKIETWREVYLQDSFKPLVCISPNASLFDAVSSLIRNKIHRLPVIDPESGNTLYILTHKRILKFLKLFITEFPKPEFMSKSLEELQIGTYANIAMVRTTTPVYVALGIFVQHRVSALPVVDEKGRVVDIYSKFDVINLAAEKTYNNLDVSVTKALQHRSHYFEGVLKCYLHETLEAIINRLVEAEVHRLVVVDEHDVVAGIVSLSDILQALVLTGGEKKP
T2 sequence (P54645 13-559 D168A limits assumed): as the sequence (P54645 13-559 limits assumed) above, with D156A counted along it
T2 sequence (P80386 whole entry partner): as the sequence (P80386 whole entry partner) above
T2 sequence (P80385 whole entry): as the sequence (P80385 whole entry K309A) above, with A309K counted along it

In the case of `CC(C)CCOC(=O)C1=CO[C@@H](O[C@@H]2O[C@H](CO)[C@@H](O)[C@H](O)[C@H]2O)C2C(CO)=CCC12` (some centres unmarked) [GENI, Geniposidic 4-isoamyl ester], the Kd in experiment [1] (SPR) was determined as 6.21 µM. Further, the kon turned out to be 806 M⁻¹ s⁻¹ in experiment [1] (setting [6]) and 9120 M⁻¹ s⁻¹ in experiment [3] (setting [6]). Besides, the “response (RU) in SPR” value in experiment [1] (point mutation of K309, versus wild-type) is given as “significantly reduced”. Besides, the “LC3 II at the protein level” value in experiment [2] was “significantly increased”. In addition, in experiment [3] (D157 replaced with A157), the “dose-dependent response in SPR” value was “No significant dose-dependent response”. Further, in experiment [4], the “stability of p53 against pronase (DARTS)” value is “no obvious effect”. The “survival rate of PC12 cells induced by H2O2” value in experiment [5] is given as “significantly improve”.

These data come from publication PMC11763059, “GENI as an AMPK Activator Binds α and γ Subunits and Improves the Memory Dysfunction of Alzheimer’s Disease Mouse Models via Autophagy and Neuroprotection” (Antioxidants, 2025).
